Results reported in patent US20040133936A1, “Enzyme” (priority 2000, published 2004).

Key:
[1] = biological target: white mustard (Sinapis alba) myrosinase (Sinapis alba, UniProt P29736); experiment: KM of white mustard myrosinase; assay type: biochemical; conditions: substrate
[2] = biological target: T1, myrosinase from the cabbage aphid (Brevicoryne brassicae) (Brevicoryne brassicae, UniProt Q95X01); experiment: Kinetic studies of aphid myrosinase (glucose released by glucosinolate hydrolysis); assay type: biochemical; conditions: for Km: substrate, read-out: apparent Km of the aphid myrosinase
T1 construct: The myrosinase from freeze-dried aphids was purified in five steps; from tissue; host or cells: whole freeze-dried Brevicoryne brassicae aphids
T1 sequence (Q95X01 1-464): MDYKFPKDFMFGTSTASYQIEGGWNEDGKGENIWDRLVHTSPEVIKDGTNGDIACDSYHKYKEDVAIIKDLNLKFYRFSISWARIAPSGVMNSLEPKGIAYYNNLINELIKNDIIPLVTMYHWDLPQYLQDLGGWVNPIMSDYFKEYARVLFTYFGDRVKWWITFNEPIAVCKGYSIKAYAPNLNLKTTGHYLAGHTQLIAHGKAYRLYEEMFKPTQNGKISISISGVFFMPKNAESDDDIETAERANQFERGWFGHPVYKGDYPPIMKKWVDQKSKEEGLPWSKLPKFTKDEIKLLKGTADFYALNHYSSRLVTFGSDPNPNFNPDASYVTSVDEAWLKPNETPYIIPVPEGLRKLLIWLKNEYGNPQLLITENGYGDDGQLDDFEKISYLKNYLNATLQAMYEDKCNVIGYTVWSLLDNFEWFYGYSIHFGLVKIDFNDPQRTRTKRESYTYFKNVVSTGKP
Procedure: (§1) An assay based on the determination of glucose released by the hydrolysis of 2-propenyl glucosinolate (sinigrin) by the aphid myrosinase was used routinely to determine enzyme activity during protein purification. GOD-Perid test reagents were purchased from Boehringer Mannheim.
(§2) Enzyme solution and sinigrin (1.08 mM) in 500 μl of sodium citrate buffer (100 mM, pH 5.5) was incubated at 30° C. for 20 min. The reaction was stopped by addition of 40 μl 3M HCl (aq) and GOD-PERID reagent (2.5 ml) added to the reaction mixture and incubated for 15 min at 37° C. The optical density was read at 346 nm and the glucose concentration calculated from a calibration graph.
The present inventors have performed a number of kinetic studies on the myrosinase from the cabbage aphid (Brevicoryne brassicae) which they have characterised. […] Like the cabbage aphid, the turnip aphid (Lipaphis erysimi) myrosinase was not activated by ascorbate in the concentration range 0.1-20 mM. The KM for sinigrin is 0.42 mM for the white mustard (Sinapis alba) myrosinase.

[3] = test system: myrosinase from the mustard plant Brassica nigra; conditions: substrates 2-propenyl and 2-hydroxy-3-butenyl glucosinolate; cited from earlier work
[4] = biological target: T2, myrosinase from the cabbage aphid B. brassicae (Brevicoryne brassicae, UniProt Q95X01); conditions: substrates 2-propenyl and 2-hydroxy-3-butenyl glucosinolate; cited from earlier work
T2 sequence (Q95X01 1-464): T1 sequence (Q95X01 1-464)

[5] = test system: turnip aphid (Lipaphis erysimi) myrosinase; experiment: Ascorbate activation of turnip aphid myrosinase; assay type: biochemical; conditions: concentration range 0.1-20 mM
plant myrosinase = conditions: cited from earlier work
[6] = biological target: T3, native enzyme (myrosinase) from white mustard seed (Sinapis alba) (Sinapis alba, UniProt P29736); conditions: stable glycosyl-enzyme intermediate at the active site; cited from earlier work
T3 construct: the native enzyme from white mustard seed (Sinapis alba) has been crystallised; host or cells: white mustard seed

[7] = Myrosinase micro assay (glucose released by hydrolysis of sinigrin); assay type: biochemical; conditions: sinigrin 1.08 mM, pH 5.5, 30° C.
Procedure: as §1
as §2, with “ml) was” for “ml)”

Chain of white mustard (Sinapis alba) myrosinase (P29736 whole entry): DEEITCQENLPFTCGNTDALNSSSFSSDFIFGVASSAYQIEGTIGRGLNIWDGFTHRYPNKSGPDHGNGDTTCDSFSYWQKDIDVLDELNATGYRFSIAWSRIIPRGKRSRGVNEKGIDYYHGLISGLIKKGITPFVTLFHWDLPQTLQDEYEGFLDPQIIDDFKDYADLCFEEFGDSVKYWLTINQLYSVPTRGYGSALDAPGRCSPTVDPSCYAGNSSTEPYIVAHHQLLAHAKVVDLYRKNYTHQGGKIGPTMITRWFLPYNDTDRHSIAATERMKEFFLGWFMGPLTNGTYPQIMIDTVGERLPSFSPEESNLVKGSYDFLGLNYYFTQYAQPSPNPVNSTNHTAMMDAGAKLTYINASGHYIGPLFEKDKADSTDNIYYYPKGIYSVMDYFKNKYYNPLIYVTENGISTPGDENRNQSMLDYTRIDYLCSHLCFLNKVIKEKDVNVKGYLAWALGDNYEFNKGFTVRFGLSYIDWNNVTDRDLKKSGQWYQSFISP
T3 sequence (P29736 whole entry): as above

## C=CC/C(=N/OS(=O)(=O)O)S[C@@H]1O[C@H](CO)[C@@H](O)[C@H](O)[C@H]1O [2-propenylglucosinolate]
[1]
  Km: 420 µM
[2]
  Km: 613 µM

## OC[C@H]1NC[C@@H](O)[C@@H]1O [AB1, 1,4-dideoxy-1,4-imino-D-arabinitol]
[3]
  inhibition of plant myrosinase: not significantly
[4]
  inhibition of aphid myrosinase: inhibited

## O=S(=O)(O)O/N=C(\Cc1ccccc1)S[C@@H]1O[C@H](CO)[C@@H](O)[C@H](O)[C@H]1O [benzyl glucosinolate]
[2]
  Km: 915 µM

## OC[C@H]1N[C@H](CO)[C@@H](O)[C@@H]1O [DMDP, (2R, 5R)-dihydroxymethyl-(3R,4R)-dihydroxypyrrolidine]
[3]
  inhibition of plant myrosinase: effectively inhibited
[4]
  inhibition of aphid myrosinase: effectively inhibited

## OC[C@H]1NC[C@H](O)[C@@H](O)[C@@H]1O [DNJ, 1-deoxynojirimycin]
[3]
  inhibition of plant myrosinase: not significantly
[4]
  inhibition of aphid myrosinase: inhibited

## O=C1O[C@H]([C@@H](O)CO)C(O)=C1O [ascorbate, ascorbic acid]
[5]
  activation by ascorbate: not activated
Plant myrosinase; high concentrations
  inhibition of plant myrosinases: inhibited
Plant myrosinase; low concentrations
  activation of plant myrosinases: activated
[2]; concentration range 0.1-20 mM
  activation by ascorbate: not activated

## O=S(=O)(O)ON=C(Cc1ccccc1)S[C@@H]1O[C@H](CO)[C@@H](O)[C@H](O)[C@H]1F [2-deoxy-2-fluoroglucotropaeolin]
[6]
  inhibition of the enzyme: potent inhibitor
[2]
  Ki: extremely low
  type of inhibition: competitively inhibited

## O=C1O[C@H](CO)[C@@H](O)[C@H](O)[C@H]1O [D-glucono-β-lactone]
Plant myrosinase
  inhibition of plant myrosinase: poor inhibitors

## OC[C@@H]1[C@@H](O)[C@H](O)[C@@H]2[C@@H](O)CCN21 [Alexine]
[3]
  inhibition of plant myrosinase: not significantly
[4]
  inhibition of aphid myrosinase: inhibited

## O[C@H]1[C@H](O)[C@@H](O)CN2CC[C@H](O)[C@H]12 [castanospermine]
[3]
  inhibition of plant myrosinase: effectively inhibited
[4]
  inhibition of aphid myrosinase: effectively inhibited

B1: Pure aphid myrosinase: myrosinase enzyme purified to homogeneity from Brevicoryne brassicae (SEQ ID NO. 1) (protein, listed as Brevicoryne brassicae)
chain: T1 sequence (Q95X01 1-464)
[7]
  Specific activity: 20.000 µmol/mg/min
